The text below walks through data of patent US8673906B2, “Chromenone derivatives” (AstraZeneca AB, priority 2010, dated 2014).

Assay [1] concerns phospho AKT (ser473) in MAD-MB-468 cells. The assay can be described thus: Detection of phospho AKT (ser473) in MAD-MB-468 cells. The note with it: Test (b). Type of assay: cell-based, human. The procedure: (b) Protocol for Detection of Phospho AKT (Ser473) in MAD-MB-468 Cells
MDA-MB-468 cells (human breast adenocarcinoma ATCC HTB 132) are seeded into Greiner 384 well black flat-bottomed plates by automated cell culture robot (Selec T). Cells can also be maintained manually and seeded into plates using multidrop or Wellmate. Cells seeded at 1500 cell/well in 40 μl of DMEN containing 10% FCS and 1% glutamine. Cell plates are incubated for 18 hours in a 37° C. incubator.
Compounds are dosed onto cells using an Echo acoustic dispenser, which dispenses nl quantities of compound or DMSO. Compounds are dosed in a 12 point concentration range from 30 μM top dose, 28 compounds are dosed on one plate. There are 17 DMSO only positive control wells per plate, and 16 negative control well which have been dosed with a concentration of reference compound that will knockout the pAKT signal.
Plates are incubated at 37° C. for 2 hours, cells are the fixed by the addition of 10 μl of a 3.7% Formaldehyde solution in a fume cupboard using a Wellmate.
After 30 minutes to allow for fixation, the fixative and media are removed and the plates washed with Proclin PBS/A using Tecan PW384 plate washer in a fume cupboard. Wells are blocked and permeabilised with the addition of 40 μl of PBS containing 0.5% Tween20 and 1% marvel using a Wellmate and incubated for 60 minutes at room temperature.
Permeabilisation and blocking buffer removed using Tecan PW384 plate washer, then 20 μl primary antibody solution added using a Wellmate. The primary antibody solution is a 1:500 dilution of Rabbit anti-phospho AKT Ser 473 (Cell signalling technologies catalogue number #3787) in PBS/T containing 1% marvel (dried milk powder) and incubated overnight at 4° C.
Plates are washed using a Tecan PW384 plate washer three times with Phosphate Buffered Saline+0.05% (v/v) Polysorbate20 and Proclin300 (Supelco). 20 μl of secondary antibody solution is then added to each well using a Wellmate and incubated for 1 hour at Room Temp. The secondary antibody solution is a 1:1000 dilution of Alexa Fluor 488 anti-Rabbit (Molecular Probes cat no A11008) diluted in Phosphate Buffered Saline+0.05% (v/v) Polysorbate20 containing 1% marvel. Plates are washed three times as before then 20 μl PBS added to each well and plates sealed with black plate sealer.
The plates are read on an Acumen reader as soon as possible. Using this system IC50 values can be generated and quality of plates determined by control wells. Reference compounds are run each time to monitor assay performance.

The target of assay [2] is PI3Kβ (Homo sapiens (Human), UniProt P42338). The assay can be described thus: In vitro enzyme inhibition assay (Kinase Glo based enzyme activity assay). The class given is biochemical. The conditions noted are these: Test (a). Summed up: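 ATP depletion by recombinant human PI3Kβ measured with Kinase-Glo luminescence after an 80 min reaction (final 80 μM ATP, 80 μM PIP2, 1% DMSO) in Tris pH 7.4 buffer with CHAPS, DTT and MgCl2, following 20 min enzyme–compound preincubation. Twelve concentrations fitted by non-linear regression for IC50.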
PI3Kβ, sequence (P42338 whole entry): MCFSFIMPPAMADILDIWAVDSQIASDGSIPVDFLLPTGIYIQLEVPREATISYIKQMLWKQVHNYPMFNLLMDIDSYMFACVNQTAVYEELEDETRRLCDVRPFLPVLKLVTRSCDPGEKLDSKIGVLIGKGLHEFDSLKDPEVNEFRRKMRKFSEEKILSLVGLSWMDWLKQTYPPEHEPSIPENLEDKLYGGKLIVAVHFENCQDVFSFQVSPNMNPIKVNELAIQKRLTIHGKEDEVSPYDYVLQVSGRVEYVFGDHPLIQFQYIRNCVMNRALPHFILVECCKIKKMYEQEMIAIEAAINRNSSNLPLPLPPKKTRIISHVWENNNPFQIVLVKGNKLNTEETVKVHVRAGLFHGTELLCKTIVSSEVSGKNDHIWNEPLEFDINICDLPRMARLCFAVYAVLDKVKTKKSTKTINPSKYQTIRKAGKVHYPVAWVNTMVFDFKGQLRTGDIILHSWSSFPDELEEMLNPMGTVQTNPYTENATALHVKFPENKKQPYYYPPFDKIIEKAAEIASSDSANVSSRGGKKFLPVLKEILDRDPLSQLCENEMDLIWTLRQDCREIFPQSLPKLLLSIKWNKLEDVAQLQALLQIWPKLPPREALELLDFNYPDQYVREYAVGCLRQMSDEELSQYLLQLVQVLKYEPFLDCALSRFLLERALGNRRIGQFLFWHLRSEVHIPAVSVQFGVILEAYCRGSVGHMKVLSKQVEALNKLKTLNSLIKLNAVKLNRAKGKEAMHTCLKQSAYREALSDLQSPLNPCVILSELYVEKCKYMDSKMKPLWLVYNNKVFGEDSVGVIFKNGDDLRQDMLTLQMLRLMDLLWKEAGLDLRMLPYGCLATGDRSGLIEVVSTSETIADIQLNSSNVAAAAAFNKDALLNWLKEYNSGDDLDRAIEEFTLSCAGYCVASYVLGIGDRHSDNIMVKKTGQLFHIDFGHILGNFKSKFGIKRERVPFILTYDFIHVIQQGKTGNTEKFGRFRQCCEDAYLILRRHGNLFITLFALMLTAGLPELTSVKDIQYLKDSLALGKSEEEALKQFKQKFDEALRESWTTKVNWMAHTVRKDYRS
PI3Kβ, sequence (P27986 whole entry partner): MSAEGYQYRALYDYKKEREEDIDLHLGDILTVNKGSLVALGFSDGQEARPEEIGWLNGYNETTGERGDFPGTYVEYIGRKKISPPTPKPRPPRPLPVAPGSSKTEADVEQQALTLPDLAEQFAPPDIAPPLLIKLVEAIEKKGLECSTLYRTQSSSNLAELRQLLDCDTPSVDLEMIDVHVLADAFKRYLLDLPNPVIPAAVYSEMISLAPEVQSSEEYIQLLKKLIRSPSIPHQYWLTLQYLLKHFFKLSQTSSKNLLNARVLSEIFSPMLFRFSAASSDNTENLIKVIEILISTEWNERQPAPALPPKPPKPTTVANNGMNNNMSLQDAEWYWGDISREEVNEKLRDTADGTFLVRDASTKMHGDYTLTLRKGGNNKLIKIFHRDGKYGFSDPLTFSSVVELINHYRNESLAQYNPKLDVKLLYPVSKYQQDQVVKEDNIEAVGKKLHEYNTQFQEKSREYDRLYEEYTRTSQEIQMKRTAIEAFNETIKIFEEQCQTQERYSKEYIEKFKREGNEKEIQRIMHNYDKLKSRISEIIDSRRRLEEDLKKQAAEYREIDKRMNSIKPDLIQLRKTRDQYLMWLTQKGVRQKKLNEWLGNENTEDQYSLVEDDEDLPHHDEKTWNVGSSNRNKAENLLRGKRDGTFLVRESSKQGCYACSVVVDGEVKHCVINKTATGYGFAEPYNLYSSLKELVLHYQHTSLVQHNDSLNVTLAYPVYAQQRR

Where [3] appears, read: Homo sapiens, approximate value, read-out: IC50 versus cellular phospho AKT (ser473) in MAD-MB-468 cells.
[4] abbreviates: approximate value, read-out: IC50 versus PI3Kβ.
Where [5] appears, read: human recombinant enzyme, read-out: PI3Kβ inhibition, IC50.
[6] abbreviates: Homo sapiens, mean IC50 value calculated from a larger number of replicates, read-out: IC50 versus cellular phospho AKT (ser473) in MAD-MB-468 cells (value in brackets).
Where [7] appears, read: approximate value, read-out: IC50 versus cellular phospho AKT (ser473) in MAD-MB-468 cells.

Read-outs that look alike come from different tables or passages of the source.

`CC(Nc1cc(F)c(F)c(F)c1)c1cc(C(=O)N(C)C)cc2c(=O)cc(N3CCOCC3)oc12` (centres unmarked) [Example 3.11, N,N-dimethyl-2-morpholino-4-oxo-8-(1-(3,4,5-trifluorophenylamino)ethyl)-4H-chromene-6-carboxamide]: the IC50 – broadly, the concentration that inhibits the measured activity by half – in assay [1] (setting [3]) was approximately 27 nM.
In the case of `CC(Nc1cccc(Cl)c1F)c1cc(C(=O)N(C)C)cc2c(=O)cc(N3CCOCC3)oc12` (racemic) [Example 3.04, 8-(1-(3-chloro-2-fluorophenylamino)ethyl)-N,N-dimethyl-2-morpholino-4-oxo-4H-chromene-6-carboxamide], the results for the IC50 in assay [1] (setting [3]), in assay [2] (setting [4]) and in assay [2] (setting [5]) were approximately 12 nM, approximately 11 nM and 11 nM, respectively.
With `CC(c1cc(C(=O)N(C)C)cc2c(=O)cc(N3CCOCC3)oc12)N(C)c1cc(F)cc(F)c1` (single isomer, unassigned) [Example 5.0a, 8-(1-((3,5-difluorophenyl)(methyl)amino)ethyl)-N,N-dimethyl-2-morpholino-4-oxo-4H-chromene-6-carboxamide], in assay [1] (setting [3]), the IC50 was approximately 15 nM.
Consider `CC(Nc1cc(F)cc(F)c1)c1cc(C(=O)N2CCCC2)cc2c(=O)cc(N3CCOCC3)oc12` (centres unmarked) [Example 4.02, 8-(1-(3,5-difluorophenylamino)ethyl)-2-morpholino-6-(pyrrolidine-1-carbonyl)-4H-chromen-4-one], for which the IC50 in assay [1] (setting [3]) is approximately 1 nM; in assay [1] (setting [6]) it was approximately 2 nM; in assay [2] (setting [4]), approximately 4 nM; in assay [2] (setting [5]) it was 4 nM.
Take `CC(Nc1cc(F)cc(F)c1)c1cc(C(=O)N(C)C)cc2c(=O)cc(N3CCOCC3)oc12` (racemic) [Example 3.06, 8-(1-(3,5-difluorophenylamino)ethyl)-N,N-dimethyl-2-morpholino-4-oxo-4H-chromene-6-carboxamide]: the IC50 in assay [1] (setting [3]) is approximately 9 nM.
Take `CC(Nc1ccc(F)cc1)c1cc(C(=O)NCCN(C)C)cc2c(=O)cc(N3CCOCC3)oc12` (centres unmarked) [Example 1.00, N-(2-(dimethylamino)ethyl)-8-(1-(4-fluorophenylamino)ethyl)-2-morpholino-4-oxo-4H-chromene-6-carboxamide]: the IC50 was approximately 9 nM in assay [1] (setting [3]), approximately 2 nM in assay [2] (setting [4]) and 2 nM in assay [2] (setting [5]).
Turning to `CC(c1cc(C(=O)N(C)C)cc2c(=O)cc(N3CCOCC3)oc12)N(C)c1ccc(F)cc1` (centres unmarked) [Example 3.07, 8-(1-((4-fluorophenyl)(methyl)amino)ethyl)-N,N-dimethyl-2-morpholino-4-oxo-4H-chromene-6-carboxamide], the concentration for half-maximal inhibition (IC50) is approximately 580 nM in assay [1] (setting [3]) and approximately 29 nM in assay [2] (setting [4]).
For the compound `CC(Nc1cc(F)cc(F)c1)c1cc(C(=O)N(C)C)cc2c(=O)cc(N3CCOCC3)oc12` (single isomer, unassigned; (-)) [Example 3.06b, (−)-8-(1-(3,5-difluorophenylamino)ethyl)-N,N-dimethyl-2-morpholino-4-oxo-4H-chromene-6-carboxamide], the 50% inhibitory concentration (IC50) in assay [1] (setting [6]) is approximately 3 nM; in assay [1] (setting [7]), approximately 5 nM.
Turning to `CC(Nc1cc(F)cc(F)c1)c1cc(C(=O)N(C)C)cc2c(=O)cc(N3CCOCC3)oc12` (single isomer, unassigned) [Example 3.06a, 8-(1-(3,5-difluorophenylamino)ethyl)-N,N-dimethyl-2-morpholino-4-oxo-4H-chromene-6-carboxamide], the IC50 in assay [1] (setting [7]) is approximately 13500 nM.
For `CC(Nc1cccc(Cl)c1F)c1cc(C(=O)N(C)CCO)cc2c(=O)cc(N3CCOCC3)oc12` (centres unmarked) [Example 2.05, 8-(1-(3-chloro-2-fluorophenylamino)ethyl)-N-(2-hydroxyethyl)-N-methyl-2-morpholino-4-oxo-4H-chromene-6-carboxamide], the IC50 in assay [1] (setting [3]) is approximately 17 nM; in assay [2] (setting [4]), approximately 5 nM; in assay [2] (setting [5]), 5 nM.
Take `CC(Nc1ccc(F)c(F)c1)c1cc(C(=O)N(C)C)cc2c(=O)cc(N3CCOCC3)oc12` (racemic) [Example 3.03, 8-(1-(3,4-difluorophenylamino)ethyl)-N,N-dimethyl-2-morpholino-4-oxo-4H-chromene-6-carboxamide]: the IC50 in assay [1] (setting [3]) was approximately 35 nM; in assay [1] (setting [6]), approximately 37 nM; in assay [2] (setting [4]), approximately 9 nM; in assay [2] (setting [5]) it was 9 nM.
As to `CC(Nc1cc(F)cc(F)c1F)c1cc(C(=O)N(C)C)cc2c(=O)cc(N3CCOCC3)oc12` (single isomer, unassigned) [Example 3.13a, N,N-dimethyl-2-morpholino-4-oxo-8-(1-(2,3,5-trifluorophenylamino)ethyl)-4H-chromene-6-carboxamide], the values for the 50% inhibitory concentration (IC50) in assay [1] (setting [3]), in assay [2] (setting [4]) and in assay [2] (setting [5]) were approximately 4300 nM, approximately 4500 nM and 4540 nM, respectively.
For `CC(c1cc(C(=O)N(C)C)cc2c(=O)cc(N3CCOCC3)oc12)N(C)c1cc(F)c(F)c(F)c1` (centres unmarked) [Example 3.38, N,N-dimethyl-8-(1-(methyl(3,4,5-trifluorophenyl)amino)ethyl)-2-morpholino-4-oxo-4H-chromene-6-carboxamide], the IC50 in assay [2] (setting [5]) is 17 nM.
